In one assay the target is T1, LXR-alpha (Homo sapiens, UniProt Q13133).
T1 construct: host or cells: liver cells in vitro
T1 sequence (Q13133 1-447): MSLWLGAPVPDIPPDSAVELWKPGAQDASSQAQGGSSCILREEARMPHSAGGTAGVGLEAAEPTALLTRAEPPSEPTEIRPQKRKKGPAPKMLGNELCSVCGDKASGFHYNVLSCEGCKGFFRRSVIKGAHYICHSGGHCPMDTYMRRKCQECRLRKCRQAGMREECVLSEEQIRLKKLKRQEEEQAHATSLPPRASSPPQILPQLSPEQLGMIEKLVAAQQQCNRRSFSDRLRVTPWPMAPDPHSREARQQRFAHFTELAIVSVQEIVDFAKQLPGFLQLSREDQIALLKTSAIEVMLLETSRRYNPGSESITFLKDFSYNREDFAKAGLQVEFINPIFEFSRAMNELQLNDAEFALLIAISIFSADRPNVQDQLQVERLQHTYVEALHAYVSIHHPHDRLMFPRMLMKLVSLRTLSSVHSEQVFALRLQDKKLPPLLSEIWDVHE
The note with it: liver cells in vitro; cited from earlier work.

A further assay has as its system acne. The experiment in a line: Study Volunteer experiences with oral taurine-magnesium treatment regimens. It counts as in vivo, human. The note with it: for Treatment Outcome: TAU 1500 mg/day, Mg 0. The text has this: The following non-limiting examples show Study Volunteer experiences with various taurine-magnesium treatment regimens. Volunteers were listed in the chronological order of the start of their taking full daily doses of taurine with magnesium.
Severity of acne was the following: Volunteers 1 and 2 had sporadic mild acne, Volunteers 3 and 4 had chronic cyclic mild acne, Volunteer 5 had chronic acne that appeared to be between mild and moderate, Volunteer 6 had chronic severe acne with scarring, Volunteer 7 had chronic moderate acne, Volunteer 8 had frequent mild acne, and Volunteer 9 had acne that appeared to be between mild and moderate.
The data provided in the Examples support the surprising conclusion that relatively high doses of taurine together with magnesium provide excellent treatment and in some cases prevention of mild to severe acne. […] As described in the Examples, some Volunteers, in addition to taking their recommended supplements of taurine and magnesium, for some weeks or months took other micronutrient supplements or even a multivitamin/mineral supplement containing an extra low dose of magnesium.

In the case of `NCCS(=O)(=O)O` [taurine], at LXR-alpha, the Cellular lipid levels entry is “dose-dependent marked reduction” and the “LXR-alpha ligand activity / lipogenesis” value was “ligand of LXR-alpha that inhibits lipogenesis”. Moreover, the “Treatment Outcome” value in the assay with acne (Volunteer 2, mild acne with noticeable lesions, 5 days) is reported as “No improvement”. Moreover, the “Improvement of acne lesions” value in the assay on acne (Volunteer 2, taurine alone 1.5 g daily, 5 days) was “no improvement”. The “Treatment Outcome” value in the assay on acne (Volunteer 4, mild acne, break-out lesions with menstrual period, 7 days) is recorded as “Slight”. Further, the Improvement of acne result in the assay with acne (Volunteer 4, taurine only, first week) is listed as “slight improvement”.
